Laboratory results published in US8198325B2, “Unsaturated alkyl esters of 5-aminolevulinic acid, their preparation and their use” (Industry Foundation of Chonnam National University, priority 2006, dated 2012).

What was measured:
Format in all cases: cell-based
[1] = tested on: Human epidermal keratinocyte (HEK); assay: Cytotoxicity test (cell survival), MTT assay, HEK; settings: 24 hours; for MTT absorbance (OD): 570 nm; for Cell survival Avg (%) ± SD (%): Table 3; for activity at 10 µM / activity at 2000 µM / activity at 50 µM / activity at 100 µM / activity at 500 µM / activity at 1000 µM / activity at 5000 µM: Homo sapiens, Table 2, read-out: Cell survival (% of control C, in brackets); for activity at 10 µM: HEK001, 0.01 mM; for activity at 2000 µM: HEK2, 2 mM; for activity at 50 µM / activity at 100 µM / activity at 500 µM / activity at 1000 µM / activity at 5000 µM: Keratinocyte
Description: (§1) 3. Cytotoxicity Test (Cell Survival Test)
(§2) Cytotoxicity was conducted through an MTT assay (Chemicon, Serologicals Corporation, USA) as follows.
(§3) Cells were seeded at a density of 3×10^4 cells/well in 96-well plates (Nunc Do, Denmark).
(§4) When the cells were at a confluence of about 60˜70%, 24 hours after seeding, the media was exchanged for 100 μl of fresh, serum-free media containing various respective concentrations of ALA or ALA-ester, after which the cells were incubated for an additional 24 hours.
(§5) An MTT solution (0.5 mg/mL) was added in an amount of […] to each well, followed by incubation for 4 hours to form formazan crystals. A color-developing solution (isopropanol with 0.04 N HCl) was added in an amount of […] per well to solubilize the formazan crystals.
(§6) The plates were measured for absorbance at 570 nm using an ELISA reader (EMAX, Molecular Device, USA).
(1) Human Epidermal Keratinocyte (HEK)
Cell survival of the human epidermal keratinocytes treated with ALA esters of the present invention and with ALA was compared. The results are summarized in Tables 1 and 2, which are represented in different manners depending on the measurements.

[2] = tested on: Human dermal fibroblast (hF); assay: Cytotoxicity test (cell survival), MTT assay, hF; settings: 24 hours
Description: as §1, §2, §3, §4, §5, §6
(2) Human Dermal Fibroblast (hF)

[3] = tested on: Squamous cell carcinoma (A431); assay: Cytotoxicity test (cell survival), MTT assay, A431; settings: 24 hours
Description: as §1, §2, §3, §4, §5, §6
(3) Squamous Cell Carcinoma (A431)

[4] = tested on: Malignant melanoma (TMX 13); assay: Cytotoxicity test (cell survival), MTT assay, TXM 13; settings: 24 hours
Description: as §1, §2, §3, §4, §5, §6
(4) Malignant Melanoma (TMX 13)

[5] = tested on: A431 cells; assay: Fluorescence spectroscopy of PpIX synthesis in A431 cells (FIG. 1); settings: 4 hours incubation, excitation 405 nm, emission 605 nm
Description: 4. Fluorescence Spectroscopy
The synthesis of PpIX, induced by ALA and unsaturated alkyl esters of ALA in cells and skin tissues, was quantified using fluorescence spectroscopy.
The intensity of PpIX was measured on a fluorescence spectrophotometer (Uvikon, model 943) with excitation at 408 nm.
Each cell line was plated at a density of 2×10^5 cells in a 10 cm^2-dish (Falcon), and when the cells reached a confluent state of 70˜80%, serum-free media containing various concentrations (0.001˜1 mM) of ALA or ALA esters was added to the cells, followed by incubation for 4 hours.
After being washed once with PBS, the cells were detached with a 50% methanol solution containing 1M […] (HClO4) and scraped off using a Costar cell scraper.
The cells thus harvested were incubated for 5 min and centrifuged.
The fluorescence of the supernatant thus obtained was determined using a spectrofluorometer with excitation at 405 nm and emission at 605 nm.
The results are graphed in FIGS. 1 and 2.

SMILES: C=CCCOC(=O)CCC(=O)CN [ALA-3, 5-Aminolevulinic acid 3-butenyl ester]
- MTT absorbance (OD) ([1]; 0.01 mM): 2.919 OD
- Cell survival Avg (%) ± SD (%) ([1]; 0.01 mM): 116.69 ± 0.69%
- MTT absorbance (OD) ([1]; 0.05 mM): 3.57 OD
- Cell survival Avg (%) ± SD (%) ([1]; 0.05 mM): 94.01 ± 0.59%
- MTT absorbance (OD) ([1]; 0.1 mM): 3.413 OD
- Cell survival Avg (%) ± SD (%) ([1]; 0.1 mM): 125.58 ± 0.51%
- MTT absorbance (OD) ([1]; 0.5 mM): 2.838 OD
- Cell survival Avg (%) ± SD (%) ([1]; 0.5 mM): 88.14 ± 0.51%
- MTT absorbance (OD) ([1]; 1 mM): 2.592 OD
- Cell survival Avg (%) ± SD (%) ([1]; 1 mM): 72.02 ± 3.82%
- MTT absorbance (OD) ([1]; 2 mM): 2.185 OD
- Cell survival Avg (%) ± SD (%) ([1]; 2 mM): 83.69 ± 4.75%
- MTT absorbance (OD) ([1]; 5 mM): 2.101 OD
- activity at 10 µM [1]: 83.8%
- activity at 2000 µM [1]: 63.1%
- activity at 50 µM ([1]; 0.05 mM): 103%
- activity at 100 µM ([1]; 0.1 mM): 98.2%
- activity at 500 µM ([1]; 0.5 mM): 81.8%
- activity at 1000 µM ([1]; 1 mM): 74.9%
- activity at 5000 µM ([1]; 5 mM): 60.5%
- Cell survival Avg (%) ± SD (%) ([2]; 0.01 mM): 114.28 ± 5.4%
- Cell survival Avg (%) ± SD (%) ([2]; 0.05 mM): 126.76 ± 3.88%
- Cell survival Avg (%) ± SD (%) ([2]; 0.1 mM): 115.65 ± 6.85%
- Cell survival Avg (%) ± SD (%) ([2]; 0.5 mM): 110.21 ± 4.21%
- Cell survival Avg (%) ± SD (%) ([2]; 1 mM): 96.59 ± 16.88%
- Cell survival Avg (%) ± SD (%) ([2]; 2 mM): 94.97 ± 9.7%
- Cell survival Avg (%) ± SD (%) ([3]; A431, 0.01 mM): 104.08 ± 0.59%
- Cell survival Avg (%) ± SD (%) ([3]; A431, 0.05 mM): 105.59 ± 0.51%
- Cell survival Avg (%) ± SD (%) ([3]; A431, 0.1 mM): 105.48 ± 0.51%
- Cell survival Avg (%) ± SD (%) ([3]; A431, 0.5 mM): 97.46 ± 3.82%
- Cell survival Avg (%) ± SD (%) ([3]; A431, 1 mM): 97.65 ± 4.75%
- Cell survival Avg (%) ± SD (%) ([3]; A431, 2 mM): 102.85 ± 1.53%
- Cell survival Avg ± SD (%) ([4]; TXM 13, 0.01 mM): 102.16 ± 10.55%
- Cell survival Avg ± SD (%) ([4]; TXM 13, 0.05 mM): 95.03 ± 10%
- Cell survival Avg ± SD (%) ([4]; TXM 13, 0.1 mM): 96.89 ± 7.99%
- Cell survival Avg ± SD (%) ([4]; TXM 13, 0.5 mM): 90.58 ± 3.8%
- Cell survival Avg ± SD (%) ([4]; TXM 13, 1 mM): 92.34 ± 4.31%
- Cell survival Avg ± SD (%) ([4]; TXM 13, 2 mM): 78.81 ± 6.22%

SMILES: C=CCCCOC(=O)CCC(=O)CN [ALA-4, 5-Aminolevulinic acid 4-pentenyl ester]
- MTT absorbance (OD) ([1]; 0.01 mM): 2.8 OD
- MTT absorbance (OD) ([1]; 0.05 mM): 2.603 OD
- Cell survival Avg (%) ± SD (%) ([1]; 0.05 mM): 66.21 ± 0.59%
- MTT absorbance (OD) ([1]; 0.1 mM): 2.98 OD
- Cell survival Avg (%) ± SD (%) ([1]; 0.1 mM): 53.63 ± 0.51%
- MTT absorbance (OD) ([1]; 0.5 mM): 2.561 OD
- Cell survival Avg (%) ± SD (%) ([1]; 0.5 mM): 50.17 ± 0.51%
- MTT absorbance (OD) ([1]; 1 mM): 2.475 OD
- Cell survival Avg (%) ± SD (%) ([1]; 1 mM): 57.17 ± 1.60%
- MTT absorbance (OD) ([1]; 2 mM): 2.407 OD
- Cell survival Avg (%) ± SD (%) ([1]; 2 mM): 44.82 ± 3.43%
- MTT absorbance (OD) ([1]; 5 mM): 1.354 OD
- activity at 10 µM [1]: 77.3%
- activity at 2000 µM [1]: 66.3%
- activity at 50 µM ([1]; 0.05 mM): 71.6%
- activity at 100 µM ([1]; 0.1 mM): 82%
- activity at 500 µM ([1]; 0.5 mM): 70.5%
- activity at 1000 µM ([1]; 1 mM): 68.3%
- activity at 5000 µM ([1]; 5 mM): 37.1%
- Cell survival Avg (%) ± SD (%) ([2]; 0.01 mM): 101.13 ± 13.45%
- Cell survival Avg (%) ± SD (%) ([2]; 0.05 mM): 114.49 ± 17.1%
- Cell survival Avg (%) ± SD (%) ([2]; 0.1 mM): 103.35 ± 14.09%
- Cell survival Avg (%) ± SD (%) ([2]; 0.5 mM): 95.81 ± 10.6%
- Cell survival Avg (%) ± SD (%) ([2]; 1 mM): 100.32 ± 6.36%
- Cell survival Avg (%) ± SD (%) ([2]; 2 mM): 93.13 ± 8.07%
- Cell survival Avg (%) ± SD (%) ([3]; A431, 0.01 mM): 101.68 ± 0.81%
- Cell survival Avg (%) ± SD (%) ([3]; A431, 0.05 mM): 102.51 ± 0.54%
- Cell survival Avg (%) ± SD (%) ([3]; A431, 0.1 mM): 93.24 ± 2.17%
- Cell survival Avg (%) ± SD (%) ([3]; A431, 0.5 mM): 80.91 ± 1.6%
- Cell survival Avg (%) ± SD (%) ([3]; A431, 1 mM): 80.11 ± 3.43%
- Cell survival Avg (%) ± SD (%) ([3]; A431, 2 mM): 84.57 ± 1.77%
- Cell survival Avg ± SD (%) ([4]; TXM 13, 0.01 mM): 96.3 ± 14.69%
- Cell survival Avg ± SD (%) ([4]; TXM 13, 0.05 mM): 83.42 ± 12.09%
- Cell survival Avg ± SD (%) ([4]; TXM 13, 0.1 mM): 72.55 ± 9.25%
- Cell survival Avg ± SD (%) ([4]; TXM 13, 0.5 mM): 75.01 ± 13.79%
- Cell survival Avg ± SD (%) ([4]; TXM 13, 1 mM): 60.95 ± 8.31%
- Cell survival Avg ± SD (%) ([4]; TXM 13, 2 mM): 49.85 ± 53.24%
- PpIX synthesis compared with ALA [5]: greater PpIX synthesis in A431 cells than did ALA
